Laboratory results as given in patent publication US20240336601A1 (Chulalongkorn University, priority 2020, published 2024).

Assays:
[1] = molecular target: T1, PD-1/PD-L1 interaction (Homo sapiens, UniProt Q9NZQ7); assay: PD-1/PD-L1 blockage cell-based bioassay (Jurkat NFAT luciferase / CHO-PDL1 co-culture); conditions: Jurkat NFAT cells co-cultured with CHO-PDL1 cells, 6 h, luminescence
T1 construct: expressed in transfected cells

[2] = molecular target: interaction between PD-1 and PD-L1 (Homo sapiens, UniProt Q9NZQ7); assay: PD-1/PD-L1 protein-protein interaction assay (ALPHA); type: binding; conditions: 2 nM His-tagged human PD-L1, 0.6 nM PD-1-Fc, AlphaScreen
interaction between PD-1 and PD-L1, sequence (Q9NZQ7 19-238 limits assumed): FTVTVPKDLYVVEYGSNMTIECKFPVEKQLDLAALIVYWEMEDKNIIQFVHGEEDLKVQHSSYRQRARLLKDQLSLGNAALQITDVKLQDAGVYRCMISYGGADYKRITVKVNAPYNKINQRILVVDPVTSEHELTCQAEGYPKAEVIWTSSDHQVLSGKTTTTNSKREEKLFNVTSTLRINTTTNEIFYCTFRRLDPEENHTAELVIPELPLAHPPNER

T1 sequence (Q9NZQ7 19-290): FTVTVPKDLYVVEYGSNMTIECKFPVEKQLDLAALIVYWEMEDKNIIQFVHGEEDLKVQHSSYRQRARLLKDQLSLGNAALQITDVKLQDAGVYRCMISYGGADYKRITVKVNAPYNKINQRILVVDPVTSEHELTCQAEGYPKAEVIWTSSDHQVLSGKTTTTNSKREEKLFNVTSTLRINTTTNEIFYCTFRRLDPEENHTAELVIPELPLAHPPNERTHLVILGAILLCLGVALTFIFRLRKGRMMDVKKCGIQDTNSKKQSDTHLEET

SMILES | IC50 [1] [µM] | IC50 [2] [µM]
COc1cc(-n2ccc3c(-c4cccc(-c5ccc(CN6CC7(CNC(=O)C7)C6)c(OC)n5)c4Cl)cccc32)cc(OC)c1CNC[C@@H]1CCC(=O)N1 [Example 96, (S)-2-((6-(2-chloro-3-(1-(3,5-dimethoxy-4-((((5-oxopyrrolidin-2-yl)methyl)amino)methyl)phenyl)-1H-indol-4-yl)phenyl)-2-methoxypyridin-3-yl)methyl)-2,6-diazaspiro[3.4]octan-7-one] | 0.201 to 2 | 0.001 to 0.01
COc1cc(-n2ncc3c(-c4cccc(-c5ccc(CN6CC7(CNC(=O)C7)C6)c(OC)n5)c4Cl)cccc32)cc(OC)c1CN[C@H]1C[C@@H](O)C1 [Example 97, 2-((6-(2-chloro-3-(l-(4-(((cis-3-hydroxycyclobutyl)amino)methyl)-3,5-dimethoxyphenyl)-1H-indazol-4-yl)phenyl)-2-methoxypyridin-3-yl)methyl)-2,6-diazaspiro[3.4]octan-7-one] | < 0.2 | < 0.001
COc1cc(-n2ncc3c(-c4cccc(-c5ccc(CN[C@H]6C[C@@H](O)C6)c(OC)n5)c4Cl)cccc32)cc(OC)c1CN1CC(C)(C(=O)NC2CC2)C1 [Example 100, 1-(4-(4-(2-chloro-3-(5-(((cis-3-hydroxycyclobutyl)amino)methyl)-6-methoxypyridin-2-yl)phenyl)-1H-indazol-1-yl)-2,6-dimethoxybenzyl)-N-cyclopropyl-3-methylazetidine-3-carboxamide] | < 0.2 | < 0.001
COc1cc(-n2ncc3c(-c4cccc(-c5ccc(CN[C@H]6C[C@@H](O)C6)c(OC)n5)c4Cl)cccc32)cc(OC)c1CN[C@H]1C[C@@H](O)C1 [Example 101, cis-3-(((6-(2-chloro-3-(1-(4-(((cis-3-hydroxycyclobutyl)amino)methyl)-3,5-dimethoxyphenyl)-1H-indazol-4-yl)phenyl)-2-methoxypyridin-3-yl)methyl)amino)cylobutanol] | < 0.2 | < 0.001
COc1cc(-n2ncc3c(-c4cccc(-c5ccc(CN[C@H]6C[C@@H](O)C6)c(OC)n5)c4Cl)cccc32)cc(OC)c1CN1CC(C)(O)C1 [Example 102, 1-(4-(4-(2-chloro-3-(5-(((cis-3-hydroxycyclobutyl)amino)methyl)-6-methoxypyridin-2-yl)phenyl)-1H-indazol-1-yl)-2,6-dimethoxybenzyl)-3-methylazetidin-3-ol] | < 0.2 | 0.001 to 0.01
COc1cc(-n2ncc3c(-c4cccc(-c5ccc(CN6CC7(CNC(=O)C7)C6)c(OC)n5)c4Cl)cccc32)cc(OC)c1CN1CC(C)(C(N)=O)C1 [Example 103, 1-(4-(4-(2-chloro-3-(6-methoxy-5-((7-oxo-2,6-diazaspiro[3.4]octan-2-yl)methyl)pyridin-2-yl)phenyl)-1H-indazol-1-yl)-2,6-dimethoxybenzyl)-3-methylazetidine-3-carboxamide] | < 0.2 | 0.001 to 0.01
COc1cc(-n2ncc3c(-c4cccc(-c5ccc(CN6CC(C)(C(N)=O)C6)c(OC)n5)c4Cl)cccc32)cc(OC)c1CN1CC(C)(O)C1 [Example 104, 1-((6-(2-chloro-3-(1-(4-((3-hydroxy-3-methylazetidin-1-yl)methyl)-3,5-dimethoxyphenyl)-1H-indazol-4-yl)phenyl)-2-methoxypyridin-3-yl)methyl)-3-methylazetidine-3-carboxamide] | 0.201 to 2 | 0.001 to 0.01
COc1cc(-n2ncc3c(-c4cccc(-c5ccc(CN[C@H]6C[C@@H](O)C6)c(OC)n5)c4Cl)cccc32)cc(OC)c1CN1CC(C)(C(N)=O)C1 [Example 105, 1-(4-(4-(2-chloro-3-(5-(((cis-3-hydroxycyclobutyl)amino)methyl)-6-methoxypyridin-2-yl)phenyl)-1H-indazol-1-yl)-2,6-dimethoxybenzyl)-3-methylazetidine-3-carboxamide] | < 0.2 | < 0.001
COc1cc(-n2ncc3c(-c4cccc(-c5ccc(CN[C@H]6C[C@@H](O)C6)c(OC)n5)c4Cl)cccc32)ncc1CN[C@H]1C[C@@H](O)C1 [Example 106, cis-3-(((6-(2-chloro-3-(1-(5-(((cis-3-hydroxycyclobutyl)amino)methyl)-4-methoxypyridin-2-yl)-1H-indazol-4-yl)phenyl)-2-methoxypyridin-3-yl)methyl)amino)cyclobutanol] | 0.201 to 2 | < 0.001
COc1cc(-n2ncc3c(-c4cccc(-c5ccc(CN6CC7(CNC(=O)C7)C6)c(OC)n5)c4Cl)cccc32)cc(OC)c1CNCC(C)(C)C(N)=O [Example 107, 3-((4-(4-(2-chloro-3-(6-methoxy-5-((7-oxo-2,6-diazaspiro[3.4]octan-2-yl)methyl)pyridin-2-yl)phenyl)-1H-indazol-1-yl)-2,6-dimethoxybenzyl)amino)-2,2-dimethylpropanamide] | < 0.2 | < 0.001
COc1cc(-n2ncc3c(-c4cccc(-c5ccc(CN6CC7(CNC(=O)C7)C6)c(OC)n5)c4Cl)cccc32)ncc1CNC[C@@H]1CCC(=O)N1 [Example 108, (S)-2-((6-(2-chloro-3-(1-(4-methoxy-5-((((5-oxopyrrolidin-2-yl)methyl)amino)methyl)pyridin-2-yl)-1H-indazol-4-yl)phenyl)-2-methoxypyridin-3-yl)methyl)-2,6-diazaspiro[3.4]octan-7-one] | < 0.2 | < 0.001

The remaining lines, values ahead:

IC50 [1] [µM] | IC50 [2] [µM] | SMILES
< 0.2 | 0.001 to 0.01 | COc1cc(-n2ncc3c(-c4cccc(-c5ccc(CN[C@H]6C[C@@H](O)C6)c(OC)n5)c4Cl)cccc32)cc(OC)c1CNCC(C)(C)C(N)=O [Example 109, 3-((4-(4-(2-chloro-3-(5-(((cis-3-hydroxycyclobutyl)amino)methyl)-6-methoxypyridin-2-yl)phenyl)-1H-indazol-1-yl)-2,6-dimethoxybenzyl)amino)-2,2-dimethylpropanamide]
0.201 to 2 | < 0.001 | COc1cc(-n2ncc3c(-c4cccc(-c5ccc(CN6CC7(CNC(=O)C7)C6)c(OC)n5)c4Cl)cccc32)ncc1CNC[C@@H](C)O [Example 110, (R)-2-((6-(2-chloro-3-(1-(5-(((2-hydroxypropyl)amino)methyl)-4-methoxypyridin-2-yl)-1H-indazol-4-yl)phenyl)-2-methoxypyridin-3-yl)methyl)-2,6-diazaspiro[3.4]octan-7-one]
0.201 to 2 | < 0.001 | COc1cc(-n2ncc3c(-c4cccc(-c5ccc(CN6CC7(CNC(=O)C7)C6)c(OC)n5)c4Cl)cccc32)ncc1CN[C@H]1C[C@@H](O)C1 [Example 111, 2-((6-(2-chloro-3-(1-(5-(((cis-3-hydroxycyclobutyl)amino)methyl)-4-methoxypyridin-2-yl)-1H-indazol-4-yl)phenyl)-2-methoxypyridin-3-yl)methyl)-2,6-diazaspiro[3.4]octan-7-one]
< 0.2 | < 0.001 | COc1cc(-n2ncc3c(-c4cccc(-c5ccc(CN6CC7(CNC(=O)C7)C6)c(OC)n5)c4Cl)cccc32)cc(OC)c1CNC[C@@H](C)O [Example 112, (R)-2-((6-(2-chloro-3-(1-(4-(((2-hydroxypropyl)amino)methyl)-3,5-dimethoxyphenyl)-1H-indazol-4-yl)phenyl)-2-methoxypyridin-3-yl)methyl)-2,6-diazaspiro[3.4]octan-7-one]
< 0.2 | < 0.001 | COc1cc(-n2ncc3c(-c4cccc(-c5ccc(CN[C@H]6C[C@@H](O)C6)c(OC)n5)c4Cl)cccc32)cc(OC)c1CNC[C@@H](C)O [Example 113, cis-3-(((6-(2-chloro-3-(1-(4-((((R)-2-hydroxypropyl)amino)methyl)-3,5-dimethoxyphenyl)-1H-indazol-4-yl)phenyl)-2-methoxypyridin-3-yl)methyl)amino)cyclobutan-1-ol]
0.201 to 2 | 0.001 to 0.01 | COc1cc(-n2ncc3c(-c4cccc(-c5ccc(C6=NCCN6)c(OC)n5)c4Cl)cccc32)cc(OC)c1CN1CC(C)(C(N)=O)C1 [Example 114, 1-(4-(4-(2-chloro-3-(5-(4,5-dihydro-1H-imidazol-2-yl)-6-methoxypyridin-2-yl)phenyl)-1H-indazol-1-yl)-2,6-dimethoxybenzyl)-3-methylazetidine-3-carboxamide]
< 0.2 | < 0.001 | COc1cc(-n2ncc3c(-c4cccc(-c5ccc(CN6CC7(CCC(=O)N7)C6)c(OC)n5)c4Cl)cccc32)ncc1CNCCO [Example 116, 2-((6-(2-chloro-3-(1-(5-(((2-hydroxyethyl)amino)methyl)-4-methoxypyridin-2-yl)-1H-indazol-4-yl)phenyl)-2-methoxypyridin-3-yl)methyl)-2,5-diazaspiro[3.4]octan-6-one]
< 0.2 | < 0.001 | COc1cc(-n2ncc3c(-c4cccc(-c5ccc(CNC[C@@H]6CCC(=O)N6)c(OC)n5)c4Cl)cccc32)cc(OC)c1CN1CC[C@@H](C(=O)O)C1 [Example 117, (R)-1-(4-(4-(2-chloro-3-(6-methoxy-5-(((((S)-5-oxopyrrolidin-2-yl)methyl)amino)methyl)pyridin-2-yl)phenyl)-1H-indazol-1-yl)-2,6-dimethoxybenzyl)pyrrolidine-3-carboxylic acid]
> 2 | < 0.001 | COc1cc(-n2ncc3c(-c4cccc(-c5ccc(CN[C@H]6C[C@@H](O)C6)c(OC)n5)c4Cl)cccc32)ncc1CN[C@@H](CO)C(N)=O [Example 118, (S)-2-(((6-(4-(2-chloro-3-(5-(((cis-3-hydroxycyclobutyl)amino)methyl)-6-methoxypyridin-2-yl)phenyl)-1H-indazol-1-yl)-4-methoxypyridin-3-yl)methyl)amino)-3-hydroxypropanamide]
0.201 to 2 | < 0.001 | COc1cc(-n2ncc3c(-c4cccc(-c5ccc(CN[C@H]6C[C@@H](O)C6)c(OC)n5)c4Cl)cccc32)cc(OC)c1CN[C@@H](C)CO [Example 119, cis-3-(((6-(2-chloro-3-(1-(4-((((S)-1-hydroxypropan-2-yl)amino)methyl)-3,5-dimethoxyphenyl)-1H-indazol-4-yl)phenyl)-2-methoxypyridin-3-yl)methyl)amino)cyclobutanol]
